Data published in PMC7806522, “Olfactory marker protein interacts with adenosine nucleotide derivatives” (Biochemistry and Biophysics Reports, 2021).
Values belong to the molecule of their own block, whether it stands above or below them.

How the values were obtained:
Format in all cases: biochemical
[1] = molecular target: T1, Olfactory marker protein (OMP) (Mus musculus, UniProt Q64288); test: BRET competition against […] 8NBD-cAMP (U-shaped, peak at […])
T1 construct: Rluc-OMP fusion (Rluc upstream of mouse OMP, NM_011010), from HEK293T lysate
T1 sequence (Q64288 2-163): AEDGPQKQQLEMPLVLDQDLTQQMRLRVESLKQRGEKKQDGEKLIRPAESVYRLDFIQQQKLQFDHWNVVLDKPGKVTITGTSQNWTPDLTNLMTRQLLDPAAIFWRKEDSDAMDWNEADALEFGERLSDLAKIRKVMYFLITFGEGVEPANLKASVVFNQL

[2] = molecular target: T1, Olfactory marker protein (OMP); test: BRET competition against […] 8NBD-cAMP (U-shaped)
[3] = molecular target: T1, Olfactory marker protein (OMP); test: direct BRET binding, Rluc-OMP to fluorescent TNP-ATP, Rluc-alone background subtracted

concentration at peak BRET signal [1]: 1 to 3 µM
Structure (SMILES): Nc1ncnc2c1ncn2[C@@H]1O[C@H](COP(=O)(O)OP(=O)(O)O)[C@@H](O)[C@H]1O [ADP]

Structure (SMILES): Nc1ncnc2c1ncn2[C@@H]1O[C@H](COP(=O)(O)OP(=O)(O)OP(=O)(O)O)[C@@H](O)[C@H]1O [ATP]
EC50 [2]: 1 ± 0.15 µM

Structure (SMILES): Nc1ncnc2c1ncn2[C@@H]1O[C@H](COP(=O)(O)OP(=O)(O)OP(=O)(O)O)[C@H]2OC3(O[C@H]21)C([N+](=O)[O-])=CC(=[N+]([O-])[O-])C=C3[N+](=O)[O-] (stereo partly drawn) [TNP-ATP]
EC50 [3]: 13 ± 1.5 µM
